Measurements taken from patent US20260234150A1, “COMPOUND FOR INHIBITING NLRP3, PREPARATION METHOD, AND USE” (DOVETREE MEDICINES UNUS, INC., priority 2023, published 2026).

Key:
CYP2D6 = biological target: T1, CYP2D6 (Homo sapiens, UniProt P10635); assay: CYP450 enzyme inhibition in human liver microsomes, CYP2D6; assay type: in vitro ADME; conditions: substrate Dextromethorphan, read-out: Inhibitory activity IC50 (μM) CYP2D6
T1 construct: 0.05 mg/mL liver microsome (BioIVT, IHG) phosphate buffer solution; tissue BioIVT IHG; host or cells: human liver microsomes
Protocol: (§1) This experiment incubates the compound, liver microsomes and different CYP subtype enzyme substrates in a 37° C. water bath to measure the amount of substrate metabolites produced and evaluate the inhibitory effect of the compound of the present disclosure on CYP enzymes based on the IC50 value.
(§2) i. The compound was diluted to 0, 0.02 mM, 0.06 mM, 0.2 mM, 0.6 mM, 2 mM and 6 mM concentrations with DMSO (Aladdin, catalog number: D103273-500 ml).
(§3) ii. The enzyme substrate solutions of each CYP subtype were prepared by phosphate buffer (sigma: V900050-500G).
(§4) iii. Sample incubation. […] After centrifugation at 4000 rpm and 4° C. for 40 min, the supernatant was diluted with pure water according to the response of the substrate metabolites and then detected by UPLC-MS/MS (Sciex, Q-Trap 4500). […]
(§5) The inhibitory effect of the compound on each P450 enzyme in human liver microsomes was calculated as the percentage of reduced metabolite formation compared with the non-inhibitory control (i.e., blank DMSO). The IC50 value for each P450 enzyme in human liver microsomes was calculated using the logarithm of the remaining activity and the inhibitor concentration using Graphpad Prism software. […]

CYP2C9 = biological target: T2, CYP2C9 (Homo sapiens, UniProt P11712); assay: CYP450 enzyme inhibition in human liver microsomes, CYP2C9; assay type: in vitro ADME; conditions: substrate Diclofenac Sodium, read-out: Inhibitory activity IC50 (μM) CYP2C9
T2 construct: 0.05 mg/mL liver microsome (BioIVT, IHG) phosphate buffer solution; tissue BioIVT IHG; host or cells: human liver microsomes
Protocol: as §1, §2, §3, §4, §5

hERG ion channel = biological target: T3, hERG ion channel (Homo sapiens, UniProt Q12809); assay: hERG ion channel inhibition, manual patch clamp in HEK293 cells; assay type: cell-based; conditions: HEK293 cells stably expressing hERG, read-out: hERG(IC50, manupatch)
T3 construct: host or cells: HEK293
Protocol: This experiment used manual patch clamp electrophysiology to detect the inhibitory effect of compounds on hERG ion channels, and evaluated cardiac safety based on the single concentration inhibition rate or IC50 size of the compounds.
The cells used in this experiment are HEK293 cell lines transfected with hERG cDNA and stably expressing hERG channels (#60187, provided by BPS, P3-P23 generations are used for experimental research). Cells were cultured in a medium containing the following components: MEM medium, 10% (v/v) inactivated fetal bovine serum, 1 mM sodium pyruvate, […] geneticin, 0.1 mM non-essential amino acids, and 100 U penicillin-streptomycin. HEK293 hERG cells were grown in culture flasks containing the above culture medium and cultured in an incubator at 37° C. and 5% CO2. […]
The electrophysiological experiments were performed by a manual patch clamp system (HEKAEPC-10 signal amplifier and digital conversion system, purchased from HEKA Electronics, Germany) to record the whole-cell current. […] After the hERG current recorded in the above steps reaches stability under continuous perfusion of extracellular fluid in the recording tank, different concentrations of the test compound can be perfused until the inhibitory effect of the drug on the hERG current reaches a stable state. […]

Measured: IC50

T2 sequence (P11712 whole entry): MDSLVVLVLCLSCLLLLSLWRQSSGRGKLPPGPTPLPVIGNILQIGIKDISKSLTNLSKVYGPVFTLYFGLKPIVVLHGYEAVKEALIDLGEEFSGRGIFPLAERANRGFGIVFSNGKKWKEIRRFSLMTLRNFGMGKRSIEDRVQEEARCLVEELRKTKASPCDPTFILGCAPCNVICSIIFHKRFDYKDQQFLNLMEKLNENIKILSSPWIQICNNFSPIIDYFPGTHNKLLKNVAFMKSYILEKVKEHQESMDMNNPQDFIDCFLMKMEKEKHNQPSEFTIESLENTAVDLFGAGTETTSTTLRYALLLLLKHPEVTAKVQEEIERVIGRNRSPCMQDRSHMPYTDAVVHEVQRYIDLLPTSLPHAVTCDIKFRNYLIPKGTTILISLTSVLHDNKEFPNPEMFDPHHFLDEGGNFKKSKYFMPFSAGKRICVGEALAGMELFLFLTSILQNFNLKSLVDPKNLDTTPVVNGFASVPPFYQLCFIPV
T1 sequence (P10635 whole entry): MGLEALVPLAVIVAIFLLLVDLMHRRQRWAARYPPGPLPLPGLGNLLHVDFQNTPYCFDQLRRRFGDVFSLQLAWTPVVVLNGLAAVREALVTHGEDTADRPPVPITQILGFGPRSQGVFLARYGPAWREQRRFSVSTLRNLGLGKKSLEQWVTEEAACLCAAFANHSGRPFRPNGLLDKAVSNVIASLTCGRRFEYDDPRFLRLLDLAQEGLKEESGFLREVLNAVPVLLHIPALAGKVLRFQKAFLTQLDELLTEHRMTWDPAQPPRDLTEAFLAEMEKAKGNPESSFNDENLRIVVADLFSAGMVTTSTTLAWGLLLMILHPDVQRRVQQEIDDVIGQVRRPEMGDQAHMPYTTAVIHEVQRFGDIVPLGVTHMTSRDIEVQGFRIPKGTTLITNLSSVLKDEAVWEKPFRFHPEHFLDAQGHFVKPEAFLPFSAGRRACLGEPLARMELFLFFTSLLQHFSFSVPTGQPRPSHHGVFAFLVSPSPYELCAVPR
T3 sequence (Q12809 whole entry): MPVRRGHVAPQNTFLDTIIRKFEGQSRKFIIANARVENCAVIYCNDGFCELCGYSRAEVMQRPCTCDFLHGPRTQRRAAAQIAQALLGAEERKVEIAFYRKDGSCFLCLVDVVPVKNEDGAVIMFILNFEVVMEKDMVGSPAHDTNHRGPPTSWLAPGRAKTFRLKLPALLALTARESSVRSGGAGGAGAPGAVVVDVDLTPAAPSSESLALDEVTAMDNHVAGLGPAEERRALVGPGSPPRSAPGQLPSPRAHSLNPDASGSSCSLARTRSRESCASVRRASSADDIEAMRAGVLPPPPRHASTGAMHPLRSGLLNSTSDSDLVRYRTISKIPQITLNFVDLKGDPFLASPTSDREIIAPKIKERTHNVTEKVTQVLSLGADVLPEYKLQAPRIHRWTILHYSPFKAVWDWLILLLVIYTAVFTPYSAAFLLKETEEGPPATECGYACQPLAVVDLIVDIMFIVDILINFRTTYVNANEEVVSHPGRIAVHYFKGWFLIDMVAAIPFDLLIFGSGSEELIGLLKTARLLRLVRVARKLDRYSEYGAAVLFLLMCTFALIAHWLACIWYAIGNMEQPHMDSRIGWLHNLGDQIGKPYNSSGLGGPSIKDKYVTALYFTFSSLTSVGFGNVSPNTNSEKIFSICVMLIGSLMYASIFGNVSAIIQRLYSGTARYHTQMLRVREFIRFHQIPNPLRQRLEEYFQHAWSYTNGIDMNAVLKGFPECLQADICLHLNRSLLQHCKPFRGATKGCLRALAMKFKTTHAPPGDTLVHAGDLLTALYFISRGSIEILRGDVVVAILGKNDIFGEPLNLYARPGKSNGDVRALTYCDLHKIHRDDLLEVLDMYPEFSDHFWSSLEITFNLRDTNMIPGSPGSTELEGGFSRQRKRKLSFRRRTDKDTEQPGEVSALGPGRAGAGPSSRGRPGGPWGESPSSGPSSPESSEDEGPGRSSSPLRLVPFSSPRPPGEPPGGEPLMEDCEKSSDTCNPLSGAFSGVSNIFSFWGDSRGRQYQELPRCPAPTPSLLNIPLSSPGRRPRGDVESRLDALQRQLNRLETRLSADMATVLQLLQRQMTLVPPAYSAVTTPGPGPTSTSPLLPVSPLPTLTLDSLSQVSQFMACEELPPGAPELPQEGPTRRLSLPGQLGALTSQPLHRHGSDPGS

CC(=O)N1CCOC[C@H]1CNc1nc2nc(-c3c(C)cc(C(F)(F)F)cc3O)ccc2o1 [Compound 111]
> 30 µM: all assays above
